According to patent US9593149B2, “Amylin and calcitonin receptor agonist” (Novo Nordisk A/S, priority 2014, dated 2017):
Converted amounts (≈) assume the structure as drawn. Values belong to the molecule of their own block, whether it stands above or below them. Numbered stars: 1 amine (or outer) side, 2 acyl side, 3 side chain; on linkers, the order of the positions; unused ones are H or OH. Peptide text beside a SMILES is read from it. * marks the point of attachment. C20 diacid = O=C(O)CCCCCCCCCCCCCCCCCCC(=O)*; C18 diacid = O=C(O)CCCCCCCCCCCCCCCCC(=O)*; γGlu = O=C(O)[C@H](CCC(=O)[*:2])N[*:1]

Experiment: Assay (IV) determination of solubility
Format: physicochemical
Description: Assay (IV)—Determination of Solubility
The mimylin peptide was dissolved in water at ˜500 nmol/ml and mixed 1:1 with a series of buffers (100 mM glycylglycine pH 3.0, 100 mM glycylglycine pH 4.0, 100 mM glycylglycine pH 5.0, 100 mM bistrispropane pH 6.0, 100 mM bistrispropane pH 6.5, 100 mM bistrispropane pH 7.0, 100 mM bistrispropane pH 7.5, 100 mM bistrispropane pH 8.0).

Structure (SMILES): CC(C)C[C@H](NC(=O)[C@H](C)NC(=O)[C@H](C)NC(=O)[C@@H](NC(=O)[C@H](CO)NC(=O)[C@H](CC(C)C)NC(=O)[C@H](CCC(=O)O)NC(=O)[C@H](CO)NC(=O)[C@H](C)NC(=O)CC[C@H](NC(=O)CCCCCCCCCCCCCCCCCCC(=O)O)C(=O)O)[C@@H](C)O)C(=O)NCC(=O)N[C@@H](CCCNC(=N)N)C(=O)N[C@@H](CC(C)C)C(=O)N[C@@H](CO)C(=O)N[C@@H](C)C(=O)N[C@@H](CCC(=O)O)C(=O)N[C@@H](CC(C)C)C(=O)N[C@@H](Cc1cnc[nH]1)C(=O)N[C@@H](CCC(=O)O)C(=O)N[C@@H](CC(C)C)C(=O)N[C@@H](C)C(=O)N[C@H](C(=O)N[C@@H](CC(C)C)C(=O)N1CCC[C@H]1C(=O)N[C@@H](CCCNC(=N)N)C(=O)N[C@H](C(=O)N[C@@H](CCC(=O)O)C(=O)N[C@H](C(=O)NCC(=O)N[C@H](C(=O)NCC(=O)N[C@H](C(=O)N1CCC[C@H]1C(N)=O)[C@@H](C)O)[C@@H](C)O)[C@@H](C)O)[C@@H](C)O)[C@@H](C)O [compound 74, [N-terminal(C20 diacid-gGlu), des1, 30T, 31G, 32T]mimylin] ({C20 diacid-γGlu}-ASELSTAALGRLSAELHELATLPRTETGTGTP-NH2)
Solubility (pH 3.0): ≧200 μM
Solubility (pH 4.0): ≧200 μM
Solubility (pH 5.0): ≧200 μM
Solubility (pH 6.0): ≧200 μM
Solubility (pH 6.5): ≧200 μM
Solubility (pH 7.0): ≧200 μM
Solubility (pH 7.5): ≧200 μM
Solubility (pH 8.0): ≧200 μM

Structure (SMILES): CC(C)C[C@H](NC(=O)[C@H](C)NC(=O)[C@H](C)NC(=O)[C@@H](NC(=O)[C@H](CO)NC(=O)[C@H](CC(C)C)NC(=O)[C@H](CCC(=O)O)NC(=O)[C@H](CO)NC(=O)[C@H](C)NC(=O)CC[C@H](NC(=O)CCCCCCCCCCCCCCCCCCC(=O)O)C(=O)O)[C@@H](C)O)C(=O)NCC(=O)N[C@@H](CCCNC(=N)N)C(=O)N[C@@H](CC(C)C)C(=O)N[C@@H](CO)C(=O)N[C@@H](C)C(=O)N[C@@H](CCC(=O)O)C(=O)N[C@@H](CC(C)C)C(=O)N[C@@H](Cc1cnc[nH]1)C(=O)N[C@@H](CCC(=O)O)C(=O)N[C@@H](CC(C)C)C(=O)N[C@@H](C)C(=O)N[C@H](C(=O)N[C@@H](CC(C)C)C(=O)N1CCC[C@H]1C(=O)N[C@@H](CCCNC(=N)N)C(=O)N[C@H](C(=O)N[C@@H](CCC(=O)O)C(=O)N[C@H](C(=O)NCC(=O)N[C@@H](CO)C(=O)NCC(=O)N[C@@H](CO)C(=O)N[C@@H](CO)C(N)=O)[C@@H](C)O)[C@@H](C)O)[C@@H](C)O [compound 63, [N-terminal(C20 diacid-gGlu), des1, 30S, 31G, 33S]mimylin] ({C20 diacid-γGlu}-ASELSTAALGRLSAELHELATLPRTETGSGSS-NH2)
Solubility (pH 3.0): ≧200 μM
Solubility (pH 4.0): ≧200 μM
Solubility (pH 5.0): ≧200 μM
Solubility (pH 6.0): ≧200 μM
Solubility (pH 6.5): ≧200 μM
Solubility (pH 7.0): ≧200 μM
Solubility (pH 7.5): ≧200 μM
Solubility (pH 8.0): ≧200 μM

Structure (SMILES): CC(C)C[C@H](NC(=O)[C@H](CCCNC(=N)N)NC(=O)CNC(=O)[C@H](CC(C)C)NC(=O)[C@@H](NC(=O)[C@H](C)NC(=O)[C@@H](NC(=O)[C@H](CO)NC(=O)[C@H](CC(C)C)NC(=O)[C@H](CCC(=O)O)NC(=O)[C@H](CO)NC(=O)[C@H](C)NC(=O)CC[C@H](NC(=O)CCCCCCCCCCCCCCCCCCC(=O)O)C(=O)O)[C@@H](C)O)[C@@H](C)O)C(=O)N[C@@H](CO)C(=O)N[C@@H](C)C(=O)N[C@@H](CCC(=O)O)C(=O)N[C@@H](CC(C)C)C(=O)N[C@@H](Cc1cnc[nH]1)C(=O)N[C@@H](CCC(=O)O)C(=O)N[C@@H](CC(C)C)C(=O)N[C@@H](CO)C(=O)N[C@H](C(=O)N[C@@H](Cc1ccc(O)cc1)C(=O)N1CCC[C@H]1C(=O)N[C@@H](CCCNC(=N)N)C(=O)N[C@H](C(=O)N[C@@H](CCC(=O)O)C(=O)N[C@H](C(=O)NCC(=O)N[C@@H](CO)C(=O)NCC(=O)N[C@@H](CO)C(=O)N1CCC[C@H]1C(N)=O)[C@@H](C)O)[C@@H](C)O)[C@@H](C)O [compound 92, [N-terminal(C20 diacid-gGlu), des1, 9T, 21S, 23Y, 30S, 31G]mimylin] ({C20 diacid-γGlu}-ASELSTATLGRLSAELHELSTYPRTETGSGSP-NH2)
Solubility (pH 3.0): ≧200 μM
Solubility (pH 4.0): ≧200 μM
solubility at 18 h (pH 5.0): 169 µM (≈ 638 µg/mL)
Solubility (pH 6.0): ≧200 μM
Solubility (pH 6.5): ≧200 μM
Solubility (pH 7.0): ≧200 μM
Solubility (pH 7.5): ≧200 μM
Solubility (pH 8.0): ≧200 μM

Structure (SMILES): CC(C)C[C@H](NC(=O)[C@H](C)NC(=O)[C@H](C)NC(=O)[C@@H](NC(=O)[C@H](CO)NC(=O)[C@H](CC(C)C)NC(=O)[C@H](CCC(N)=O)NC(=O)[C@H](CO)NC(=O)[C@H](C)NC(=O)CC[C@H](NC(=O)CCCCCCCCCCCCCCCCC(=O)O)C(=O)O)[C@@H](C)O)C(=O)NCC(=O)N[C@@H](CCCNC(=N)N)C(=O)N[C@@H](CC(C)C)C(=O)N[C@@H](CO)C(=O)N[C@@H](C)C(=O)N[C@@H](CCC(N)=O)C(=O)N[C@@H](CC(C)C)C(=O)N[C@@H](Cc1cnc[nH]1)C(=O)N[C@@H](CCC(=O)O)C(=O)N[C@@H](CC(C)C)C(=O)N[C@@H](C)C(=O)N[C@H](C(=O)N[C@@H](CC(C)C)C(=O)N1CCC[C@H]1C(=O)N[C@@H](CCCNC(=N)N)C(=O)N[C@H](C(=O)N[C@@H](CCC(=O)O)C(=O)N[C@H](C(=O)NCC(=O)N[C@@H](CO)C(=O)NCC(=O)N[C@@H](CO)C(=O)N1CCC[C@H]1C(N)=O)[C@@H](C)O)[C@@H](C)O)[C@@H](C)O [compound 87, [N-terminal(C18 diacid-gGlu), des1, 4Q, 16Q, 30S, 31G]mimylin] ({C18 diacid-γGlu}-ASQLSTAALGRLSAQLHELATLPRTETGSGSP-NH2)
Solubility (pH 3): ≧200 μM
Solubility (pH 4): ≧200 μM
Solubility (pH 5): ≧200 μM
Solubility (pH 6): ≧200 μM
Solubility (pH 6.5): ≧200 μM
Solubility (pH 7): ≧200 μM
Solubility (pH 7.5): ≧200 μM
Solubility (pH 8): ≧200 μM

More lines, now with the values ahead:

Solubility (pH 3.0): ≧200 μM
Solubility (pH 4.0): ≧200 μM
solubility at 18 h (pH 5.0): 65 µM (≈ 250 µg/mL)
Solubility (pH 6.0): ≧200 μM
Solubility (pH 6.5): ≧200 μM
Solubility (pH 7.0): ≧200 μM
Solubility (pH 7.5): ≧200 μM
Solubility (pH 8.0): ≧200 μM
Structure (SMILES): CC(C)C[C@H](NC(=O)CNC(=O)[C@H](CO)NC(=O)[C@H](C)NC(=O)CC[C@H](NC(=O)CCCCCCCCCCCCCCCCCCC(=O)O)C(=O)O)C(=O)N[C@@H](CO)C(=O)N[C@H](C(=O)N[C@@H](C)C(=O)N[C@@H](C)C(=O)N[C@@H](CC(C)C)C(=O)NCC(=O)N[C@@H](CCCNC(=N)N)C(=O)N[C@@H](CC(C)C)C(=O)N[C@@H](CO)C(=O)N[C@@H](CCC(N)=O)C(=O)N[C@@H](CCC(=O)O)C(=O)N[C@@H](CC(C)C)C(=O)N[C@@H](Cc1cnc[nH]1)C(=O)N[C@@H](CCC(=O)O)C(=O)N[C@@H](CC(C)C)C(=O)N[C@@H](CCC(=O)O)C(=O)N[C@H](C(=O)N[C@@H](Cc1ccc(O)cc1)C(=O)N1CCC[C@H]1C(=O)N[C@@H](CCCNC(=N)N)C(=O)N[C@H](C(=O)N[C@@H](CCC(=O)O)C(=O)N[C@H](C(=O)NCC(=O)N[C@@H](CO)C(=O)NCC(=O)N[C@H](C(=O)N[C@@H](Cc1ccc(O)cc1)C(N)=O)[C@@H](C)O)[C@@H](C)O)[C@@H](C)O)[C@@H](C)O)[C@@H](C)O [compound 108, [N-terminal(C20 diacid-gGlu), des1, 4G, 15Q, 21E, 23Y, 30S, 31G, 32T, 33Y]mimylin] ({C20 diacid-γGlu}-ASGLSTAALGRLSQELHELETYPRTETGSGTY-NH2)

Solubility (pH 3.0): ≧200 μM
solubility at 18 h (pH 6.0): 161 µM (≈ 642 µg/mL)
Solubility (pH 6.5): ≧200 μM
Solubility (pH 7.0): ≧200 μM
Solubility (pH 7.5): ≧200 μM
Solubility (pH 8.0): ≧200 μM
Structure (SMILES): CC(C)C[C@H](NC(=O)CNC(=O)[C@H](CO)NC(=O)[C@H](C)NC(=O)CC[C@H](NC(=O)CCCCCCCCCCCCCCCCCCC(=O)O)C(=O)O)C(=O)N[C@@H](CO)C(=O)N[C@H](C(=O)N[C@@H](CC(C)C)C(=O)N[C@H](C(=O)N[C@@H](CC(C)C)C(=O)NCC(=O)N[C@@H](CCCNC(=N)N)C(=O)N[C@@H](CC(C)C)C(=O)N[C@@H](CO)C(=O)N[C@@H](CCC(N)=O)C(=O)N[C@@H](CCC(=O)O)C(=O)N[C@@H](CC(C)C)C(=O)N[C@@H](Cc1cnc[nH]1)C(=O)N[C@@H](CCC(=O)O)C(=O)N[C@@H](CC(C)C)C(=O)N[C@@H](CCC(N)=O)C(=O)N[C@H](C(=O)N[C@@H](Cc1ccc(O)cc1)C(=O)N1CCC[C@H]1C(=O)N[C@@H](CCCNC(=N)N)C(=O)N[C@H](C(=O)N[C@@H](CCC(=O)O)C(=O)N[C@H](C(=O)NCC(=O)N[C@@H](CO)C(=O)N[C@@H](CCC(N)=O)C(=O)N[C@H](C(=O)N[C@@H](Cc1ccc(O)cc1)C(N)=O)[C@@H](C)O)[C@@H](C)O)[C@@H](C)O)[C@@H](C)O)C(C)C)[C@@H](C)O [compound 126, [N-terminal(C20 diacid-gGlu), des1, 4G, 8L, 9V, 15Q, 21Q, 23Y, 30S, 31Q, 32T, 33Y]mimylin] ({C20 diacid-γGlu}-ASGLSTLVLGRLSQELHELQTYPRTETGSQTY-NH2)
